From ChEMBL document CHEMBL5465560, “Selectivity Literature for EUbOPEN Chemogenomic Library” (2024)

Legend:
[1] = target: T1, Inhibitor of nuclear factor kappa-B kinase subunit epsilon (Homo sapiens) (UniProt Q14164); test: Selectivity interaction (ActivX KiNativ screen (kinase selectivity in THP-1 cell lysates)) EUB0000639a IKBKE; format: subcellular; details: lysate
T1 sequence (whole entry): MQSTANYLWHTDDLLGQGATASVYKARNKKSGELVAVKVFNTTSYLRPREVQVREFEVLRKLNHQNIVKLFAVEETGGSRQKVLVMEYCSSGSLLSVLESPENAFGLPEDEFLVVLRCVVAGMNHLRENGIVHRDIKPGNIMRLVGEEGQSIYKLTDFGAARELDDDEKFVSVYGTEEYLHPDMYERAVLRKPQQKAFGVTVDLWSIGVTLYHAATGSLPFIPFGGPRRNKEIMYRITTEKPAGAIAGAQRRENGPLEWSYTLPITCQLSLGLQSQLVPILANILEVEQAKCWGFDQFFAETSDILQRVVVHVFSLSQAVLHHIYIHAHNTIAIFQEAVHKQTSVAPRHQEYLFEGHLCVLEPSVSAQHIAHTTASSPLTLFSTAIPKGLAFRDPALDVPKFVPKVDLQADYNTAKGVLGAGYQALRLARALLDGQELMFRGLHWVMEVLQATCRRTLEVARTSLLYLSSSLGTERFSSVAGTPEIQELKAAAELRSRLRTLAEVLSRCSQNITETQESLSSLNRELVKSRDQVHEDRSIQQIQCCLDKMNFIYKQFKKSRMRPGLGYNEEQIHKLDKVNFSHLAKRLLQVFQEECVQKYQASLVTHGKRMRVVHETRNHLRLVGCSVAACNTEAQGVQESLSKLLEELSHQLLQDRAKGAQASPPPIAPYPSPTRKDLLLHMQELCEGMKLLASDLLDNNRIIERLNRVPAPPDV

[2] = target: T2, Serine/threonine-protein kinase TBK1 (Homo sapiens) (UniProt Q9UHD2); test: Selectivity interaction (KinomeScan (DiscoverX)) EUB0000618a TBK1; details: at 10 µM
T2 sequence (whole entry): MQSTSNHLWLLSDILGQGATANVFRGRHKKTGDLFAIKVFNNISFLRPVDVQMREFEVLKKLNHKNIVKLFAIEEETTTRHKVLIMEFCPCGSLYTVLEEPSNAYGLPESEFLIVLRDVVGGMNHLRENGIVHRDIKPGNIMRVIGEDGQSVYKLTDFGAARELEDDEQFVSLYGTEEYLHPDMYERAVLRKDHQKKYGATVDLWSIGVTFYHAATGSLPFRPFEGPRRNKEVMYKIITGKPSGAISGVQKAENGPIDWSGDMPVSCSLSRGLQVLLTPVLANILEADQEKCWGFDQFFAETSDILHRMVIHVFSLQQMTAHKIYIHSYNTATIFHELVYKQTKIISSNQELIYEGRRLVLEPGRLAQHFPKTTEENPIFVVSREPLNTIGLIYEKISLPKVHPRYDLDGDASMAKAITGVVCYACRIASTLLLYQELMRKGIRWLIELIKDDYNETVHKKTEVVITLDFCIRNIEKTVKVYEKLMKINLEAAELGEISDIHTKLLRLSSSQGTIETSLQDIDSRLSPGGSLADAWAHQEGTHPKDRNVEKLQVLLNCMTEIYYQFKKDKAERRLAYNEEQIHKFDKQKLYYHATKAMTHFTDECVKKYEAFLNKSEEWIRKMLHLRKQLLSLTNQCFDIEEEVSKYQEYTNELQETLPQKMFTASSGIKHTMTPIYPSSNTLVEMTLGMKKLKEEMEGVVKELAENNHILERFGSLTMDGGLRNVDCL

[3] = target: Ribosomal protein S6 kinase alpha-2 (Homo sapiens) (UniProt Q15349); test: Selectivity interaction (KinomeScan (DiscoverX)) EUB0000618a RPS6KA2; details: at 10 µM
Chain of Ribosomal protein S6 kinase alpha-2 (Homo sapiens) (Q15349 whole entry): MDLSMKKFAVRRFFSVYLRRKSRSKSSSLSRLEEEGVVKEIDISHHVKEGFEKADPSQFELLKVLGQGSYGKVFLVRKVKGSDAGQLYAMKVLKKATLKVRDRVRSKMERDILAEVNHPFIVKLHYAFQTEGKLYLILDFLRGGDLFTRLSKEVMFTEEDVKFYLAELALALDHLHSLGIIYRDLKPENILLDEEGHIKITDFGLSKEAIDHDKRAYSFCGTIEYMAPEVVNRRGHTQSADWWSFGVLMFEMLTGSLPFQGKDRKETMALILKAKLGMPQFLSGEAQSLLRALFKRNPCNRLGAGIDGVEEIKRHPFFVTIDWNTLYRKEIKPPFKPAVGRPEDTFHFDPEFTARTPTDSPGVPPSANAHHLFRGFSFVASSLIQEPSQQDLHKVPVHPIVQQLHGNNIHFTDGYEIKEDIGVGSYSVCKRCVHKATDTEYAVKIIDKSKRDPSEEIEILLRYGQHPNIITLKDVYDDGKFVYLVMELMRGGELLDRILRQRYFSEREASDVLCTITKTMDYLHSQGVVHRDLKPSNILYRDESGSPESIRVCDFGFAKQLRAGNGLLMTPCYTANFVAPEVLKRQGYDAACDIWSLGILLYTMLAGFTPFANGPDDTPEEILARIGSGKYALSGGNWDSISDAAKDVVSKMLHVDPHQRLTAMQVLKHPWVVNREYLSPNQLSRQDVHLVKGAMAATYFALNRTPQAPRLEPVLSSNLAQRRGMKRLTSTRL

[4] = target: NT-3 growth factor receptor (Homo sapiens, UniProt Q16288); test: Selectivity interaction (KinomeScan (DiscoverX)) EUB0001619a NTRK3; details: at 1 µM
Chain of NT-3 growth factor receptor (Q16288 32-839 limits assumed): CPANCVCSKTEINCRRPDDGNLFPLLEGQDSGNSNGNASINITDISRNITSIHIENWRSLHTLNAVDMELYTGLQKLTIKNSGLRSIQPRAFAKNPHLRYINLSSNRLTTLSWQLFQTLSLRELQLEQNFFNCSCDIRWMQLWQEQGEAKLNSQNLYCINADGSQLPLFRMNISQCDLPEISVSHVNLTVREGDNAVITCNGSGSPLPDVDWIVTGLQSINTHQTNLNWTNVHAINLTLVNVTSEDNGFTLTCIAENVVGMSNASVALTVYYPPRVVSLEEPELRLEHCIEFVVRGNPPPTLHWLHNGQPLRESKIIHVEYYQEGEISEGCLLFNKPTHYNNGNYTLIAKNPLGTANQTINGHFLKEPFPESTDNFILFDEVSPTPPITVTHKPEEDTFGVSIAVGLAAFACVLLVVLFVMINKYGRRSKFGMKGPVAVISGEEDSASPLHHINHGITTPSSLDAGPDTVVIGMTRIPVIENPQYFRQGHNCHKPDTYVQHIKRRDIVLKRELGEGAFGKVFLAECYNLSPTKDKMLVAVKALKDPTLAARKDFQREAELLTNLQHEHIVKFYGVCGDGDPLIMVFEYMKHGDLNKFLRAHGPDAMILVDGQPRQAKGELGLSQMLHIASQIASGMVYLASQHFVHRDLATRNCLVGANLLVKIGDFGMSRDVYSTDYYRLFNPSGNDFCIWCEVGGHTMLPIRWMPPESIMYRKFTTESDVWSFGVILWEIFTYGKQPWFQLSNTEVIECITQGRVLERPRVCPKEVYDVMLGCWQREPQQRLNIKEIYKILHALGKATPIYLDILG

[5] = target: Receptor-type tyrosine-protein kinase FLT3 (Homo sapiens) (UniProt P36888); test: (§1) Selectivity interaction (KinomeScan (DiscoverX)) EUB0001619a FLT3; details: at 1 µM
[6] = system: T3, Receptor-type tyrosine-protein kinase FLT3 (Homo sapiens), P36888 [K663Q]; test: as §1; details: at 1 µM
T3 sequence (whole entry): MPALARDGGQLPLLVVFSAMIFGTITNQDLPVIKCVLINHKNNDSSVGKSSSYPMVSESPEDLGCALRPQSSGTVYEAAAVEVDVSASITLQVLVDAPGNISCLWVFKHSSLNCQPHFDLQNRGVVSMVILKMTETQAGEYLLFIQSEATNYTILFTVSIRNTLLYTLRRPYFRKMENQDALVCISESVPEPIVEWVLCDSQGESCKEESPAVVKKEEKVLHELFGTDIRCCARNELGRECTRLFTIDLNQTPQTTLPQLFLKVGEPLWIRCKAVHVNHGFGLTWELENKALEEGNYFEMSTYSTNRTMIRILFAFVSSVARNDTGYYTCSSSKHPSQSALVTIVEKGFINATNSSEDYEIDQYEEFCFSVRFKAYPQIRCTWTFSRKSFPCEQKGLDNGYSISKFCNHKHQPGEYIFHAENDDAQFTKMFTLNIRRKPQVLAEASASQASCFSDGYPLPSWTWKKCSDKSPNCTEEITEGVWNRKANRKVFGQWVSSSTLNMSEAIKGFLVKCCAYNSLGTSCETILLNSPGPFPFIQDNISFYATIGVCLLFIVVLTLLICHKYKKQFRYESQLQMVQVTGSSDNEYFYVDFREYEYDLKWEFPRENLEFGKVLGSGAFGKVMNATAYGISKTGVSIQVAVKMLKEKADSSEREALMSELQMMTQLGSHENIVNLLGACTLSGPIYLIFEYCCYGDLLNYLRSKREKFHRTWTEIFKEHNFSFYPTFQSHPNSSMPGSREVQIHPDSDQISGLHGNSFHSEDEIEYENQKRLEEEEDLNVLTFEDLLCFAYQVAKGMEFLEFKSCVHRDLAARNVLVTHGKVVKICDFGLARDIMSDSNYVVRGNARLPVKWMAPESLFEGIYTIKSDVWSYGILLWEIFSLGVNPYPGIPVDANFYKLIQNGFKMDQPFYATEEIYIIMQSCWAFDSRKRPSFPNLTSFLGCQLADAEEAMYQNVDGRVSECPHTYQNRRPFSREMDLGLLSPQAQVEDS

## CC[C@@H]1[C@H](F)C(=O)N[C@@H]1COc1nccc2cc(C(N)=O)c(OC)cc12 [ZIMLOVISERTIB]
[1]; at 0.01 µM
  % of inhibition: 20.6%
[1]; at 0.04 µM
  % of inhibition: 7.3%
[1]; at 0.2 µM
  % of inhibition: 30.8%
[1]; at 1 µM
  % of inhibition: 60.2%
[1]; at 5 µM
  % of inhibition: 82.3%

## O[C@H]1CC[C@H](Nc2ncc3nc(Nc4c(F)cc(F)cc4F)n([C@H]4CCOC4)c3n2)CC1
[2]
  % of control: 74%
[3]
  % of control: 91%

## N#Cc1cccc(-c2c[nH]c3ncnc(N4CCOCC4)c23)c1
[4]
  % of control: 84%
[5]
  % of control: 89%
[6]
  % of control: 71%
